Test results from patent publication US11602534B2, “Pyrimidine derivative kinase inhibitors” (HEFEI INSTITUTES OF PHYSICAL SCIENCE, CHINESE ACADEMY OF …, priority 2017, dated 2023).
Where a name gives a salt, the structure may show the parent alone.

Legend:
TEL-PDGFRα-BaF3 = assay: Proliferation of TEL-PDGFRα-BaF3 cells, CCK8 cell viability assay; format: cell-based; conditions: Mus musculus, 72 hours, stably expressing PDGFRα kinase
Text: (§1) In this example the following cells were used: […] (purchased from ATCC), mouse P210-BaF3 (stably expressing BCR-ABL mutant activated kinase), mouse P210/T315I-BaF3 (stably expressing BCR-ABL/T315I mutant activated kinase), mouse FLT3-ITD-BaF3 (stably expressing FLT3/ITD mutant activated kinase), mouse TEL-FLT3-BaF3 (stably expressing FLT3 kinase), mouse TEL-cKIT-BaF3 (stably expressing cKIT kinase), mouse BaF3-tel/T670I-cKit (stably expressing cKIT/T670I mutant activated kinase), mouse Tel-VEGFR2-BaF3 (stably expressing VEGFR2 kinase), mouse Tel-PDGFRα-BaF3 (stably expressing PDGFRα kinase), mouse Tel-PDGFRβ-BaF3 (stably expressing PDGFRβ kinase), mouse Tel-RET-BaF3 (stably expressing RET kinase). The above cell lines were all constructed by our laboratory according to the following method: the kinase region sequences of human P210, P210/T315I, FLT3/ITD, FLT3, cKIT, cKIT/T670I, VEGFR2, PDGFRα, PDGFRβ, RET were respectively amplified by PCR, and inserted into MSCV-Puro vectors having N-terminal TEL or TPR fragments (Clontech). The vectors were stably transfected into mouse BaF3 cells by means of retrovirus, and the growth factor IL-3 were removed, eventually obtaining cell lines that depend on transferred protein P210, P210/T315I, FLT3/ITD, FLT3, cKIT, cKIT/T670I, VEGFR2, PDGFRα, PDGFRβ, or RET.
(§2) GI50 (unit: μM) was calculated by quantifying the number of living cells based on quantitative measurement of reductive dehydrogenase in living cells with CCK8 cell viability assay kit (Bestbio, China).

Tel-cKit/T670I-BaF3 = assay: Proliferation of Tel-cKit/T670I-BaF3 cells, CCK8 cell viability assay; format: cell-based; conditions: Mus musculus, 72 hours, stably expressing cKIT/T670I
Text: as §1, §2

Tel-cKit-BaF3 = assay: Proliferation of Tel-cKit-BaF3 cells, CCK8 cell viability assay; format: cell-based, mouse; conditions: Mus musculus; 72 hours, CCK8; stably expressing cKIT kinase
Text: as §1, §2

TEL-PDGFRβ-BaF3 = assay: Proliferation of TEL-PDGFRβ-BaF3 cells, CCK8 cell viability assay; format: cell-based; conditions: Mus musculus, 72 hours, stably expressing PDGFRβ kinase
Text: as §1, §2

BaF3 = assay: Proliferation of BaF3 cells, CCK8 cell viability assay; format: cell-based; conditions: Mus musculus, 72 hours
Text: as §1, §2

TEL-VEGFR2-BaF3 = assay: Proliferation of TEL-VEGFR2-BaF3 cells, CCK8 cell viability assay; format: cell-based; conditions: Mus musculus, 72 hours, stably expressing VEGFR2 kinase
Text: as §1, §2

FLT3-ITD-BaF3 = assay: Proliferation of FLT3-ITD-BaF3 cells, CCK8 cell viability assay; format: cell-based; conditions: Mus musculus, 72 hours, stably expressing FLT3/ITD
Text: as §1, §2

Tel-FLT3-BaF3 = assay: Proliferation of Tel-FLT3-BaF3 cells, CCK8 cell viability assay; format: cell-based; conditions: Mus musculus, 72 hours, stably expressing FLT3 kinase
Text: as §1, §2

Tel-RET-BaF3 = assay: Proliferation of Tel-RET-BaF3 cells, CCK8 cell viability assay; format: cell-based; conditions: Mus musculus, 72 hours, stably expressing RET kinase
Text: as §1, §2

P210/T315I-BaF3 = assay: Proliferation of P210/T315I-BaF3 cells, CCK8 cell viability assay; format: cell-based; conditions: Mus musculus, 72 hours, stably expressing BCR-ABL/T315I
Text: as §1, §2

P210-BaF3 = assay: Proliferation of P210-BaF3 cells, CCK8 cell viability assay; format: cell-based; conditions: Mus musculus, 72 hours, stably expressing BCR-ABL mutant activated kinase
Text: as §1, §2

| Structure (SMILES) | GI50 (TEL-PDGFRα-BaF3) | GI50 (Tel-cKit/T670I-BaF3) | GI50 (Tel-cKit-BaF3) | GI50 (TEL-PDGFRβ-BaF3) | GI50 (BaF3) | GI50 (TEL-VEGFR2-BaF3) | GI50 (FLT3-ITD-BaF3) | GI50 (Tel-FLT3-BaF3) | GI50 (Tel-RET-BaF3) | GI50 (P210/T315I-BaF3) | GI50 (P210-BaF3) |
| --- | --- | --- | --- | --- | --- | --- | --- | --- | --- | --- | --- |
| Cc1ccc(NC(=O)Nc2ccc(Oc3cc(N4CCN(C(=O)OC(C)(C)C)C[C@H]4C)ncn3)cc2)cc1C(F)(F)F [Example 100, (R)-3-methyl-4-(6-(4-(3-(4-methyl-3-(trifluoromethyl)phenyl)ureido)phenoxy)pyrimidin-4-yl)piperazin-1-tert-butyl Formate] | 63 nM | 8080 nM | 1520 nM | 342 nM | 9010 nM | 1660 nM | 30 nM | 600 nM | 5820 nM | – | – |
| Cc1ccc(NC(=O)Nc2ccc(Oc3cc(NCC(N)=O)ncn3)cc2)cc1C(F)(F)F [Example 142, 2-(6-{4-[3-(4-methyl-3-trifluoromethyl-phenyl)-ureido]-phenoxy}-pyrimidin-4-ylamino)-acetamide] | 7 nM | 1840 nM | 736 nM | 8 nM | > 10000 nM | 9670 nM | 54 nM | 162 nM | – | > 10000 nM | > 10000 nM |
| CC(=O)Nc1cc(Sc2ccc(NC(=O)Cc3ccccc3C(F)(F)F)cc2)ncn1 [Example 67, N-[4-(6-acetylamino-pyrimidin-4-ylsulfanyl)-phenyl]-2-(2-trifluoromethyl-phenyl)-acetamide] | 14 nM | > 10000 nM | 6170 nM | 312 nM | > 10000 nM | 7820 nM | 291 nM | 1470 nM | – | 9790 nM | 8080 nM |
| Cc1ccc(NC(=O)Nc2ccc(Oc3cc(NC4CCNCC4)ncn3)cc2)cc1C(F)(F)F [Example 103, 1-(4-methyl-3-trifluoromethyl-phenyl)-3-{4-[6-(piperidin-4-ylamino)-pyrimidin-4-yloxy]-phenyl}-urea] | 70 nM | 9530 nM | 3220 nM | 355 nM | > 10000 nM | 2890 nM | 190 nM | 480 nM | > 10000 nM | – | – |
| Cc1ccc(NC(=O)Nc2ccc(Oc3cc(N[C@H](C)CNC(=O)OC(C)(C)C)ncn3)cc2)cc1C(F)(F)F [Example 112, (R)-(2-((6-(4-(3-(4-methyl-3-(trifluoromethyl)phenyl)ureido)phenoxy)pyrimidin-4-yl)amino)propyl)aminotert-butyl Formate] | 23 nM | 886 nM | 1070 nM | 51 nM | 4120 nM | 390 nM | 58 nM | 599 nM | 3820 nM | – | – |
| CC(=O)Nc1cc(Oc2ccc(NC(=O)C(O)c3ccccc3F)cc2)ncn1 (stereo not drawn) [Example 63, N-[4-(6-acetylamino-pyrimidin-4-yloxy)-phenyl]-2-(2-fluoro-phenyl)-2-hydroxy-acetamide] | 476 nM | > 10000 nM | > 10000 nM | 5750 nM | > 10000 nM | 3430 nM | 325 nM | 4680 nM | – | > 10000 nM | > 10000 nM |
| COc1ccc(CC(=O)Nc2ccc(Oc3cc(NC(C)=O)ncn3)cc2)cc1OC [Example 61, N-[4-(6-acetylamino-pyrimidin-4-yloxy)-phenyl]-2-(3,4-dimethoxy-phenyl)-acetamide] | 74 nM | > 10000 nM | 4890 nM | 233 nM | 5710 nM | 1780 nM | 63 nM | 1390 nM | – | 9770 nM | 5610 nM |
| CC(=O)Nc1cc(Oc2ccc(NC(=O)Cc3ccc(C(C)(C)C)cc3)cc2)ncn1 [Example 65, N-[4-(6-acetylamino-pyrimidin-4-yloxy)-phenyl]-2-(4-tert-butyl-phenyl)-acetamide] | 12 nM | 1070 nM | 376 nM | 84 nM | > 10000 nM | 277 nM | 24 nM | 612 nM | – | > 10000 nM | > 10000 nM |
| C=CC(=O)NCCNc1cc(Nc2ccc(CC(=O)Nc3ccc(C)c(C(F)(F)F)c3)cc2)ncn1 [Example 140, N-[2-(6-{4-[(4-methyl-3-trifluoromethyl-phenylcarbamoyl)-methyl]-phenylamino}-pyrimidin-4-ylamino)-ethyl]-acrylamide] | 131 nM | > 10000 nM | > 10000 nM | 170 nM | > 10000 nM | 9670 nM | 377 nM | 1110 nM | – | 9610 nM | > 10000 nM |
| CCC(=O)NCCNc1cc(Nc2ccc(CC(=O)Nc3ccc(C)c(C(F)(F)F)c3)cc2)ncn1 [Example 139, N-[2-(6-{4-[(4-methyl-3-trifluoromethyl-phenylcarbamoyl)-methyl]-phenylamino}-pyrimidin-4-ylamino)-ethyl]-propanamide] | 319 nM | 9980 nM | > 10000 nM | 34 nM | > 10000 nM | 8910 nM | 432 nM | 1000 nM | – | 9800 nM | > 10000 nM |
| Cc1ccc(NC(=O)Cc2ccc(Oc3cc(NCCN)ncn3)cc2)cc1C(F)(F)F [Example 137, 2-(4-((6-((2-aminoethyl)amino)pyrimidin-4-yl)oxy)phenyl)-N-(4-methyl-3-(trifluoromethyl)phenyl)acetamide] | 11 nM | 323 nM | 465 nM | 34 nM | > 10000 nM | 149 nM | 12 nM | 40 nM | – | 9930 nM | > 10000 nM |
| CC(C)(C)C(=O)Nc1cc(Oc2ccc(NC(=O)Cc3ccc(C(F)(F)F)cc3)cc2)ncn1 [Example 52, 2,2-dimethyl-N-(6-{4-[2-(4-trifluoromethyl-phenyl)-acetylamino]-phenoxy}-pyrimidin-4-yl)-propanamide] | 33 nM | 5680 nM | 2260 nM | 92 nM | > 10000 nM | 3420 nM | 374 nM | 3000 nM | – | > 10000 nM | > 10000 nM |
| Cc1ccc(NC(=O)Cc2ccc(Nc3cc(NCCN)ncn3)cc2)cc1C(F)(F)F [Example 138, 2-{4-[6-(2-amino-ethylamino)-pyrimidin-4-ylamino]-phenyl}-N-(4-methyl-3-trifluoromethyl-phenyl)-acetamide] | 17 nM | 377 nM | 2600 nM | 79 nM | > 10000 nM | 711 nM | 14 nM | 34 nM | – | > 10000 nM | > 10000 nM |
| CC(=O)Nc1cc(Oc2ccc(NC(=O)Cc3ccc(C)c(C)c3)cc2)ncn1 [Example 60, N-[4-(6-acetylamino-pyrimidin-4-yloxy)-phenyl]-2-(3,4-dimethyl-phenyl)-acetamide] | 11 nM | 1880 nM | 917 nM | 26 nM | > 10000 nM | 433 nM | 14 nM | 195 nM | – | > 10000 nM | > 10000 nM |
| COc1cc(CC(=O)Nc2ccc(Oc3cc(NC(C)=O)ncn3)cc2)cc(OC)c1OC [Example 62, N-[4-(6-acetylamino-pyrimidin-4-yloxy)-phenyl]-2-(3,4,5-trimethoxy-phenyl)-acetamide] | 45 nM | 6580 nM | 810 nM | 231 nM | > 10000 nM | 1180 nM | 50 nM | 390 nM | – | > 10000 nM | > 10000 nM |
